Among the data in US8067447B2, “Modulators of glucocorticoid receptor, AP-1, and/or NF-κB activity and use thereof” (Bristol-Myers Squibb Company, priority 2006, dated 2011) are Ki and EC50 values, retold here.

Usually Ki stands for the equilibrium dissociation constant of an inhibitor or competing ligand from its target. As a reminder, the EC50 is the concentration giving half of the maximal effect.

The target in experiment [1] is T1, human full-length glucocorticoid receptor (Homo sapiens, UniProt P04150).
T1 construct: a cell lysate containing recombinantly expressed human full-length glucocorticoid receptor; purchased PanVera Co., Madison, Wis; P2816
T1 sequence (P04150 1-777): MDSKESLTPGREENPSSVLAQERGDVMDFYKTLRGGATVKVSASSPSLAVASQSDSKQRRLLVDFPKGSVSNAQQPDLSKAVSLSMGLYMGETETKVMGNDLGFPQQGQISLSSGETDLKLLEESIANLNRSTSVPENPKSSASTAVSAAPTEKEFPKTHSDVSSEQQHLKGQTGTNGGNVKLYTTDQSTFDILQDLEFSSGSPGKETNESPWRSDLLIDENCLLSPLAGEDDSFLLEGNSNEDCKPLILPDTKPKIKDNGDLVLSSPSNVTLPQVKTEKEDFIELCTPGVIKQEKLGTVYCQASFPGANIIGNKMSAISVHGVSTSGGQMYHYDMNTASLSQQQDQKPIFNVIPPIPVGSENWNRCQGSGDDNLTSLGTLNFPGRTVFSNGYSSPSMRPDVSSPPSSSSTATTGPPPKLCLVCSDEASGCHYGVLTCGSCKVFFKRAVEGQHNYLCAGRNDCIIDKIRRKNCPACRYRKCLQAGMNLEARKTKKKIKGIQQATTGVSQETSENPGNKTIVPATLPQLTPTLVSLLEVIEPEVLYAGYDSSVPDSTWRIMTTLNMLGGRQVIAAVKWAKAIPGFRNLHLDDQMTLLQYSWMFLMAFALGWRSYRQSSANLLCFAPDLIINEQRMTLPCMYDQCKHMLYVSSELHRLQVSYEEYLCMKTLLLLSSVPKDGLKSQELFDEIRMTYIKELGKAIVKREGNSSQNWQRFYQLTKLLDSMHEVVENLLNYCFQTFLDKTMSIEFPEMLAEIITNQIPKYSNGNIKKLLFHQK
Kind of experiment: Glucocorticoid Receptor Binding Assay (II), fluorescence polarization competitor kit (Fluormone GS1). To be noted: cell lysate with recombinant human full-length GR, 1 nM Fluormone GS1, FP. The method, then: In order to measure the binding of compounds on the glucocorticoid receptor a commercially available kit was used (Glucocorticoid receptor competitor assay kit, PanVera Co., Madison, Wis., P2816). Briefly, a cell lysate containing recombinantly expressed human full-length glucocorticoid receptor was mixed with a fluorescently labeled glucocorticoid (1 nM Fluormone GS1) in the presence or absence of test compound. After one hour at room temperature, the fluorescence polarization (FP) of the samples were measured.
Background: In fluorescence polarisation assays a small probe gives low polarisation when free and higher when bound to something large.

Experiment [2] concerns AP-1 induced transcriptional activity. Kind of experiment: Cellular Transrepressional Assay (AP-1 luciferase reporter in A549 cells, PMA-activated). The format is cell-based. To be noted: Homo sapiens, A549, 7 h, A549 cells with 7x AP-1 luciferase reporter, 10 ng/ml PMA, read-out: AP-1 (EC50, nM) (Cellular Transrepression Assay). In a few lines: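 Test molecules spanning 0.1 nM to 40 μM were co-incubated 7 h with 10 ng/ml PMA in A549 cells stably carrying a 7× AP-1-driven luciferase plasmid. Repression, as % reduction of PMA-alone luminescence measured 10 min after reagent addition, was curve-fitted to give EC50s.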

On to `CC(C)(C(=O)Nc1nncs1)C(c1cccc(F)c1)c1ccc2c(cnn2-c2ccc(F)cc2)c1` (stereo not shown) [Example 52, 3-(3-fluorophenyl)-3-(1-(4-fluorophenyl)-1H-indazol-5-yl)-2,2-dimethyl-N-(1,3,4-thiadiazol-2-yl)propanamide], for which the Ki in experiment [1] amounted to 1.3 nM. The EC50 in experiment [2] worked out at 8.1 nM.
On the same counts, the results for `CC(C)(C(=O)Nc1nncs1)C(c1ccc(F)cc1)c1ccc2c(cnn2-c2ccc(F)cc2)c1` (stereo not shown) [Example 53, 3-(4-fluorophenyl)-3-(1-(4-fluorophenyl)-1H-indazol-5-yl)-2,2-dimethyl-N-(1,3,4-thiadiazol-2-yl)propanamide] are 1.9 nM and 13 nM.
On the same counts, the results for `C/C=C/CC(c1ccc2c(cnn2-c2ccc(F)cc2)c1)C(C)(C)C(=O)Nc1nncs1` (stereo not shown) [Example 55, (E)-3-(1-(4-fluorophenyl)-1H-indazol-5-yl)-2,2-dimethyl-N-(1,3,4-thiadiazol-2-yl)hept-5-enamide] are 1.3 nM and 2500 nM.
On to `CC(C)=CC(c1ccc2c(cnn2-c2ccc(F)cc2)c1)C(C)(C)C(=O)Nc1nncs1` (stereo not shown) [Example 56, 3-(1-(4-fluorophenyl)-1H-indazol-5-yl)-2,2,5-trimethyl-N-(1,3,4-thiadiazol-2-yl)hex-4-enamide], for which the Ki in experiment [1] came to 1.3 nM. Further, the EC50 in experiment [2] came to 4 nM.
Regarding `COC(=O)c1ccc(-n2ncc3cc(C(c4ccccc4)C(C)(C)C(=O)Nc4nncs4)ccc32)cc1` (stereo not shown) [Example 88, methyl 4-(5-(3-(1,3,4-thiadiazol-2-ylamino)-2,2-dimethyl-3-oxo-1-phenylpropyl)-1H-indazol-1-yl)benzoate], the Ki in experiment [1] was 26 nM. Besides, in experiment [2], the half-maximal effective concentration (EC50) was more than 10000 nM.
On the same counts, the results for `CC(C)(C(=O)Nc1nncs1)C(c1ccccc1)c1ccc2c(cnn2-c2ccc(C(=O)O)cc2)c1` (stereo not shown) [Example 89, 4-(5-(3-(1,3,4-thiadiazol-2-ylamino)-2,2-dimethyl-3-oxo-1-phenylpropyl)-1H-indazol-1-yl)benzoic acid] are 27 nM and more than 10000 nM.
On to `COc1cccc(-n2ncc3cc(C(c4ccccc4)C(C)(C)C(=O)Nc4nncs4)ccc32)c1` (stereo not shown) [Example 94, 3-(1-(3-methoxyphenyl)-1H-indazol-5-yl)-2,2-dimethyl-3-phenyl-N-(1,3,4-thiadiazol-2-yl)propanamide], for which the Ki in experiment [1] turned out to be 36 nM. The EC50 in experiment [2] was found to be 1200 nM.
As for `COc1cc(F)ccc1-n1ncc2cc([C@H](c3ccccc3)C(C)(C)C(=O)Nc3nncs3)ccc21` [Example 96, (3S)-3-(1-(4-fluoro-2-methoxyphenyl)-1H-indazol-5-yl)-2,2-dimethyl-3-phenyl-N-(1,3,4-thiadiazol-2-yl)propanamide], the Ki in experiment [1] was 3.1 nM. Moreover, the EC50 in experiment [2] was found to be 23 nM.
Consider `CC(C)(C(=O)Nc1nncs1)[C@@H](c1ccccc1)c1ccc2c(cnn2-c2ccc(F)cc2C#N)c1` [Example 97, (3S)-3-(1-(2-cyano-4-fluorophenyl)-1H-indazol-5-yl)-2,2-dimethyl-3-phenyl-N-(1,3,4-thiadiazol-2-yl)propanamide], for which the Ki in experiment [1] turned out to be 5.5 nM. In addition, the EC50 in experiment [2] is more than 2500 nM.
Regarding `CC(C)(C(=O)Nc1nncs1)C1(c2ccc3c(cnn3-c3ccc(F)cc3)c2)CCCCC1` [Example 101, 2-(1-(1-(4-Fluorophenyl)-1H-indazol-5-yl)cyclohexyl)-2-methyl-N-(1,3,4-thiadiazol-2-yl)propanamide], the Ki in experiment [1] is 1 nM. For the same molecule, the EC50 in experiment [2] came to 36 nM.
Turning to `CC(C)(C(=O)Nc1nccs1)C1(c2ccc3c(cnn3-c3ccc(F)cc3)c2)CCCCC1` [Example 102, 2-(1-(1-(4-Fluorophenyl)-1H-indazol-5-yl)cyclohexyl)-2-methyl-N-(thiazol-2-yl)propanamide], the Ki in experiment [1] amounted to 2.8 nM. In addition, the half-maximal effective concentration (EC50) in experiment [2] was determined as 12 nM.
Turning to `CC(C)c1cc2c(cnn2-c2ccc(F)cc2)cc1CC(C)(C)C(=O)Nc1nncs1` [Example 104], in experiment [1], the Ki is 1.6 nM. The 50% effective concentration (EC50) in experiment [2] was more than 10000 nM.
Regarding `Cc1cc2c(cnn2-c2ccc(F)cc2)cc1CC(C)(C)C(=O)Nc1nncs1` [Example 105], in experiment [1], the Ki is 5.6 nM. The EC50 in experiment [2] came to 1.9 nM.
On the same counts, the results for `Cc1cc2c(cnn2-c2ccc(F)cc2)cc1CC(C)C(=O)Nc1nncs1` (stereo not shown) [Example 106, 3-(1-(4-Fluorophenyl)-6-methyl-1H-indazol-5-yl)-2-methyl-N-(1,3,4-thiadiazol-2-yl)propanamide] are 1 nM and 160 nM.
On the same counts, the results for `CC(C)(C(=O)Nc1nccs1)C(C)(C)c1ccc2c(cnn2-c2ccc(F)cc2)c1` [Example 113, 3-(1-(4-Fluorophenyl)-1H-indazol-5-yl)-2,2,3-trimethyl-N-(thiazol-2-yl)butanamide] are 5.1 nM and 107 nM.
`CC(C)(CC(=O)Nc1nccs1)c1ccc2c(cnn2-c2ccc(F)cc2)c1` [Example 114, 3-(1-(4-Fluorophenyl)-1H-indazol-5-yl)-3-methyl-N-(thiazol-2-yl)butanamide]: the inhibition constant Ki in experiment [1] is 11 nM. Moreover, the EC50 in experiment [2] is more than 10000 nM.
For the molecule `CC(C)(C(=O)NC1CCCC1O)C(C)(C)c1ccc2c(cnn2-c2ccc(F)cc2)c1` (stereo not shown) [Example 121, 3-(1-(4-fluorophenyl)-1H-indazol-5-yl)-N-(2-hydroxycyclopentyl)-2,2,3-trimethylbutanamide], in experiment [1], the Ki stood at 8.3 nM. Moreover, the EC50 in experiment [2] was determined as 1730 nM.
For `CC(C)(CC(=O)Nc1nncs1)c1ccc2c(cnn2-c2ccc(F)cc2)c1` [Example 122, 3-(1-(4-fluorophenyl)-1H-indazol-5-yl)-3-methyl-N-(1,3,4-thiadiazol-2-yl)butanamide], the Ki in experiment [1] came to 2.3 nM. Also, in experiment [2], the EC50 is more than 10000 nM.
On the same counts, the results for `CC(C)(C(=O)Nc1nncs1)C(Cc1ccccc1)c1ccc2c(cnn2-c2ccc(F)cc2)c1` (stereo not shown) [Example 123, 3-(1-(4-fluorophenyl)-1H-indazol-5-yl)-2,2-dimethyl-4-phenyl-N-(1,3,4-thiadiazol-2-yl)butanamide] are 1.1 nM and 705 nM.
For the molecule `Cc1ccc(CC(c2ccc3c(cnn3-c3ccc(F)cc3)c2)C(C)(C)C(=O)NC2CCCC2O)cc1` (stereo not shown) [Example 125, 3-(1-(4-fluorophenyl)-1H-indazol-5-yl)-N-(2-hydroxycyclopentyl)-2,2-dimethyl-4-p-tolylbutanamide], in experiment [1], the Ki came out at 9.9 nM. Also, the EC50 in experiment [2] is more than 10000 nM.
`Cc1ccc(CC(c2ccc3c(cnn3-c3ccc(F)cc3)c2)C(C)(C)C(=O)Nc2nccs2)cc1` (stereo not shown) [Example 126, 3-(1-(4-fluorophenyl)-1H-indazol-5-yl)-2,2-dimethyl-N-(thiazol-2-yl)-4-p-tolylbutanamide]: the Ki in experiment [1] is 6.8 nM. In addition, the concentration giving a half-maximal response (EC50) in experiment [2] was more than 10000 nM.
On to `Cc1ccc(CC(c2ccc3c(cnn3-c3ccc(F)cc3)c2)C(C)(C)C(=O)Nc2nncs2)cc1` (stereo not shown) [Example 127, 3-(1-(4-fluorophenyl)-1H-indazol-5-yl)-2,2-dimethyl-N-(1,3,4-thiadiazol-2-yl)-4-p-tolylbutanamide], for which the Ki in experiment [1] turned out to be 3.8 nM. Moreover, the EC50 in experiment [2] is more than 10000 nM.
`CC(C)(C(=O)NC1CC1)C(Cc1ccccc1)c1ccc2c(cnn2-c2ccc(F)cc2)c1` (stereo not shown) [Example 128, N-cyclopropyl-3-(1-(4-fluorophenyl)-1H-indazol-5-yl)-2,2-dimethyl-4-phenylbutanamide]: the Ki in experiment [1] is 0.68 nM. Further, in experiment [2], the EC50 amounted to 673 nM.
`CC(C)(C(=O)NC1CCC1)C(Cc1ccccc1)c1ccc2c(cnn2-c2ccc(F)cc2)c1` (stereo not shown) [Example 129, N-cyclobutyl-3-(1-(4-fluorophenyl)-1H-indazol-5-yl)-2,2-dimethyl-4-phenylbutanamide]: the inhibitory constant (Ki) in experiment [1] turned out to be 0.87 nM. Also, in experiment [2], the EC50 came out at 106 nM.
Consider `CC(C)(C(=O)NC1CCOCC1)C(Cc1ccccc1)c1ccc2c(cnn2-c2ccc(F)cc2)c1` (stereo not shown) [Example 132, 3-(1-(4-fluorophenyl)-1H-indazol-5-yl)-2,2-dimethyl-4-phenyl-N-(tetrahydro-2H-pyran-4-yl)butanamide], for which, in experiment [1], the Ki is 7.8 nM. The EC50 in experiment [2] is more than 10000 nM.
As to `CC(C)(C(=O)NC1CCNCC1)C(Cc1ccccc1)c1ccc2c(cnn2-c2ccc(F)cc2)c1` (stereo not shown) [Example 133, 3-(1-(4-fluorophenyl)-1H-indazol-5-yl)-2,2-dimethyl-4-phenyl-N-(piperidin-4-yl)butanamide], the inhibition constant Ki in experiment [1] worked out at 153 nM. The EC50 in experiment [2] was more than 10000 nM.
